Experimental data published in US20240150330A1, “CHROMANS AND BENZOFURANS AS 5-HT1A AND TAAR1 AGONISTS” (Sunovion Pharmaceuticals Inc., priority 2021, published 2024).

The molecules below were run against T1, TAAR1 receptor (UniProt Q96RJ0) (assay: TAAR1 Agonist cAMP Assay). Conditions: CHO-K1 cells expressing TAAR1; cAMP HTRF; 30 minutes at room temperature.
T1 sequence (Q96RJ0 1-339): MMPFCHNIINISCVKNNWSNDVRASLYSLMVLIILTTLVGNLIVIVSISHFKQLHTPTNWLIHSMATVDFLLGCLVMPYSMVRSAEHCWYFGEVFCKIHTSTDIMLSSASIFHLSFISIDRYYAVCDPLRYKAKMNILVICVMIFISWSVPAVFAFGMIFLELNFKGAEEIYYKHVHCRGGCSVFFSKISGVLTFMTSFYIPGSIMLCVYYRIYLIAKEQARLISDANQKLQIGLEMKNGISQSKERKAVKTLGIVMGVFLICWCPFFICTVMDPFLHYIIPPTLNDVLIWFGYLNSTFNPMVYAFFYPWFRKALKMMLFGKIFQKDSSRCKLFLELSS
Assay type: cell-based, human or mouse
Experimental: CHO-K1 cells expressing the human TAAR1 receptor (Accession number NP_612200.1) or mouse TAAR1 receptor (Accession number NP_444435.1) were grown in media (Advanced DMEM supplemented with 1% dialyzed fetal bovine serum) without antibiotics. The cells were detached by gentle flushing with phosphate buffered saline containing 5 mM EDTA, recovered by centrifugation and resuspended in assay buffer (Krebs-Ringers Henseleit buffer: 5 mM KCl, 1.25 mM MgSO4, 124 mM NaCl, 25 mM HEPES, 13.3 mM Glucose, 1.25 mM KH2PO4, 1.45 mM CaCl2, 0.5 g/L BSA, supplemented with 1 mM isobutylmethylxanthine). Testing was performed in 384-well plates. 5 μl of cells (3000 cells) were mixed with 5 μl of the test compound diluted in assay buffer and then incubated for 30 minutes at room temperature. cAMP levels were determined using the Cisbio cAMP Gs dynamic HTRF kit (Cisbio, Bedford, MA). The results of the testing are shown in Table 3, with EC50 ranges designated as follows: • A=0.1 μM to 1 μM • B=0.01 μM to <0.1 μM • C=0.001 μM to <0.01 μM • D=0.0001 μM to <0.001 μM
In the case of CNCC1CCOc2c(-c3cnccc3C)cccc21 (stereo in doubt) [Compound 6, (R)—N-methyl-1-(8-(4-methylpyridin-3-yl)chroman-4-yl)methanamine], the EC50 is reported as 1 to 10 nM. With Cc1ccncc1-c1cccc2c1OCC[C@H]2CN [Compound 5, (R)-(8-(4-methylpyridin-3-yl)chroman-4-yl)methanamine] the EC50 was 1 to 10 nM. NC[C@@H]1CCOc2c(-c3ccc(C(F)(F)F)nc3)cccc21 [Compound 7, 1-[(4R)-8-[6-(trifluoromethyl)pyridin-3-yl]-3,4-dihydro-2H-1-benzopyran-4-yl]methanamine] gave an EC50 of 10 to 100 nM. Work on CNC[C@@H]1CCOc2c(-c3ccc(C(F)(F)F)nc3)cccc21 [Compound 8, methyl({[(4R)-8-[6-(trifluoromethyl)pyridin-3-yl]-3,4-dihydro-2H-1-benzopyran-4-yl]methyl})amine] yielded an EC50 of 10 to 100 nM. NC[C@@H]1CCOc2c(-c3ccnc(C(F)(F)F)c3)cccc21 [Compound 9, 1-[(4R)-8-[2-(trifluoromethyl)pyridin-4-yl]-3,4-dihydro-2H-1-benzopyran-4-yl]methanamine] gave an EC50 of 0.1 to 1 nM. CNC[C@@H]1CCOc2c(-c3ccnc(C(F)(F)F)c3)cccc21 [Compound 10] was tested, and the EC50 was 1 to 10 nM. Work on COc1cnccc1-c1cccc2c1OCC[C@H]2CN [Compound 11, [(4R)-8-(3-methoxypyridin-4-yl)-3,4-dihydro-2H-1-benzopyran-4-yl]methanamine] yielded an EC50 of 1 to 10 nM. CNC[C@@H]1CCOc2c(-c3ccncc3OC)cccc21 [Compound 12, (R)-1-(8-(3-methoxypyridin-4-yl)chroman-4-yl)-N-methylmethanamine] was tested, and the EC50 was 100 to 1000 nM. For Cc1ccc(-c2cccc3c2OCC[C@H]3CN)cn1 [Compound 13, (R)-(8-(6-methylpyridin-3-yl)chroman-4-yl)methanamine], the EC50 was 0.1 to 1 nM. Work on CNC[C@@H]1CCOc2c(-c3ccc(C)nc3)cccc21 [Compound 14, (R)—N-methyl-1-(8-(6-methylpyridin-3-yl)chroman-4-yl)methanamine] yielded an EC50 of 1 to 10 nM. Molecule Cc1cc(-c2cccc3c2OCC[C@@H]3CN)ccn1 [Compound 15, (S)-(8-(2-methylpyridin-4-yl)chroman-4-yl)methanamine] has an EC50 of 1 to 10 nM. With CNC[C@H]1CCOc2c(-c3ccnc(C)c3)cccc21 [Compound 16, (S)—N-methyl-1-(8-(2-methylpyridin-4-yl)chroman-4-yl)methanamine] the EC50 was 10 to 100 nM. Cc1cc(-c2cccc3c2OCC[C@H]3CN)ccn1 [Compound 17, (R)-(8-(2-methylpyridin-4-yl)chroman-4-yl)methanamine] showed an EC50 of 1 to 10 nM. For CNC[C@@H]1CCOc2c(-c3ccnc(C)c3)cccc21 [Compound 18, (R)—N-methyl-1-(8-(2-methylpyridin-4-yl)chroman-4-yl)methanamine], the EC50 was 1 to 10 nM. With Cc1cc(-c2cccc3c2OCC[C@H]3CN)c(C)cn1 [Compound 19, (R)-(8-(2,5-dimethylpyridin-4-yl)chroman-4-yl)methanamine] the EC50 was 1 to 10 nM. In the case of Cc1cnccc1-c1cccc2c1OCC[C@H]2CN [Compound 20, (R)-(8-(3-methylpyridin-4-yl)chroman-4-yl)methanamine], the EC50 is reported as 1 to 10 nM. Molecule CNC[C@@H]1CCOc2c(-c3ccncc3C)cccc21 [Compound 21, methyl({[(4R)-8-(3-methylpyridin-4-yl)-3,4-dihydro-2H-1-benzopyran-4-yl]methyl})amine] has an EC50 of 10 to 100 nM. Molecule NC[C@@H]1CCOc2c(-c3cccnc3)cccc21 [Compound 22] has an EC50 of 0.1 to 1 nM. With NC[C@H]1CCOc2c(-c3cccnc3)cccc21 [Compound 24] the EC50 was 10 to 100 nM. For CNC[C@H]1CCOc2c(-c3cccnc3)cccc21 [Compound 25], the EC50 was 10 to 100 nM. Cc1ncc(-c2cccc3c2OCC[C@H]3CN)cn1 [Compound 26] gave an EC50 of 10 to 100 nM. Cc1ncccc1-c1cccc2c1OCC[C@H]2CN [Compound 27] was tested, and the EC50 was 10 to 100 nM. With CNC[C@@H]1CCOc2c(-c3cccnc3C)cccc21 [Compound 28] the EC50 was 10 to 100 nM. For Cc1cc(C)c(-c2cccc3c2OCC[C@H]3CN)cn1 [Compound 29, 1-[(4R)-8-(4,6-dimethylpyridin-3-yl)-3,4-dihydro-2H-1-benzopyran-4-yl]methanamine], the EC50 was 1 to 10 nM. Work on Cc1nccc(-c2cccc3c2OCC[C@H]3CN)c1C [Compound 30, (R)-(8-(2,3-dimethylpyridin-4-yl)chroman-4-yl)methanamine] yielded an EC50 of 10 to 100 nM. NC[C@@H]1CCOc2c(-c3cncnc3)cccc21 [Compound 31] gave an EC50 of 1 to 10 nM. For CNC[C@@H]1CCOc2c(-c3cncnc3)cccc21 [Compound 32], the EC50 was 1 to 10 nM. With CNC[C@@H]1CCOc2c(-c3cc(C)ncc3C)cccc21 [Compound 33] the EC50 was 1 to 10 nM. Work on NC[C@@H]1CCOc2c(-c3cnccn3)cccc21 [Compound 34] yielded an EC50 of 10 to 100 nM. Molecule CNC[C@@H]1CCOc2c(-c3cnccn3)cccc21 [Compound 35] has an EC50 of 10 to 100 nM. Cn1cncc1-c1cccc2c1OCC[C@H]2CN [Compound 36] gave an EC50 of 1 to 10 nM. In the case of CNC[C@@H]1CCOc2c(-c3cncn3C)cccc21 [Compound 37], the EC50 is reported as 10 to 100 nM. NC[C@@H]1CCOc2c(-c3cncs3)cccc21 [Compound 38] gave an EC50 of 0.1 to 1 nM. Work on CNC[C@@H]1CCOc2c(-c3cncs3)cccc21 [Compound 39] yielded an EC50 of 1 to 10 nM. Work on NC[C@@H]1CCOc2c(-c3ccnnc3)cccc21 [Compound 40] yielded an EC50 of 1 to 10 nM. With CNC[C@@H]1CCOc2c(-c3ccnnc3)cccc21 [Compound 41] the EC50 was 10 to 100 nM. Molecule CNC[C@@H]1CCOc2c(-c3ccnc(C)c3C)cccc21 [Compound 42] has an EC50 of 10 to 100 nM. CNC[C@@H]1CCOc2c(-c3cnc(C)nc3)cccc21 [Compound 43] showed an EC50 of 100 to 1000 nM. NC[C@@H]1CCOc2c(-c3cnc[nH]3)cccc21 [Compound 44, 1-[(4R)-8-(1H-imidazol-5-yl)-3,4-dihydro-2H-1-benzopyran-4-yl]methanamine] was tested, and the EC50 was 1 to 10 nM. In the case of CNC[C@@H]1CCOc2c(-c3cnc[nH]3)cccc21 [Compound 45, {[(4R)-8-(1H-imidazol-5-yl)-3,4-dihydro-2H-1-benzopyran-4-yl]methyl}(methyl)amine], the EC50 is reported as 1 to 10 nM. CNC[C@@H]1CCOc2c(-c3cnn(C)c3C)cccc21 [Compound 48] gave an EC50 of 1 to 10 nM. Work on CNC[C@@H]1CCOc2c(-c3cn(C)nc3C)cccc21 [Compound 49] yielded an EC50 of 10 to 100 nM. CNC[C@@H]1CCOc2c(-c3cscn3)cccc21 [Compound 50] showed an EC50 of 1 to 10 nM. CNC[C@@H]1CCOc2c(-c3ccc(F)cc3)cccc21 [Compound 53, (R)-1-(8-(4-fluorophenyl)chroman-4-yl)-N-methylmethanamine] was tested, and the EC50 was 1 to 10 nM. For CNC[C@@H]1CCOc2c(-c3cnn(C)c3)cccc21 [Compound 54, (R)—N-methyl-1-(8-(1-methyl-1H-pyrazol-4-yl)chroman-4-yl)methanamine], the EC50 was 1 to 10 nM. CNC[C@@H]1CCOc2c(-c3ccn(C)n3)cccc21 [Compound 55, (R)—N-methyl-1-(8-(1-methyl-1H-pyrazol-3-yl)chroman-4-yl)methanamine] showed an EC50 of 10 to 100 nM. With CNC[C@@H]1CCOc2c(-c3nccs3)cccc21 [Compound 56, (R)—N-methyl-1-(8-(thiazol-2-yl)chroman-4-yl)methanamine] the EC50 was 10 to 100 nM. CNC[C@@H]1CCOc2c(-c3cnsc3)cccc21 [Compound 57, (R)-1-(8-(isothiazol-4-yl)chroman-4-yl)-N-methylmethanamine] gave an EC50 of 1 to 10 nM.
